Among the data in PubChem BioAssay (NCI) are GI50 and TGI values, retold here.

This experiment relates to MDA-MB-468 breast. Nature of the experiment: NCI tumour cell line growth inhibition, 48 h.

Several values for one entry are separate records, joined by “and”; a condition that tells them apart may be missing. Identical values can stand only once.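 Dose response: 5 concentrations. Exposure: 48 h. Format: 96-well plates. Endpoint: linear interpolation; highest concentration if not reached. GI50: concentration for 50% inhibition of growth. At the TGI there is no net growth.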 A value given as a limit tells only on which side of the number the result lay.

On to `COc1cc(/C=C/C(=O)c2cc(OC)c(OC)c(OC)c2)ccc1Oc1nc2c(c(=O)n(C)c(=O)n2C)n1C`, for which the GI50 is 1920 nM and the TGI worked out at 3.73 µM.

With `CC#Cc1nc2ccccc2c(=O)[nH]1`, the GI50 is 2360 nM and the TGI came out at 6.04 µM.

Consider `O=C1/C(=C\c2ccc(Br)cc2)CN(C(=O)c2ccccc2F)C/C1=C\c1ccc(Br)cc1`, for which the GI50 is 1690 nM and the TGI was 3.69 µM.

As to `O=C1OCC2=C1C(c1cccc(F)c1)c1cc3c(cc1N2CCO)CCC3` (stereo unspecified), the GI50 is 37.1 nM and the TGI is 1.09 µM.

For `CCN(CC)c1ccc(N=O)cc1`, the GI50 was 1720 nM and the TGI was 4.39 µM.

For the compound `CC1=C(SCCC(=O)OCC(=O)NCCC[Te]c2ccccc2)C(=O)c2ccccc2C1=O`, the GI50 is 1810 nM and the TGI worked out at 3.61 µM.

As to `CC(C)(O)c1coc(S(=O)(=O)/N=C(\O)Nc2c3c(cc4c2CCC4)CCC3)c1`, the GI50 is more than 100000 nM and the TGI was more than 100 µM.

`CCCCCCCCCCCCCCCCCCOP(=O)([O-])OC1CC[N+](C)(C)CC1`: the GI50 was 3740 nM and the TGI is more than 10 µM.

As for `COc1cc2c3c(n(CCCN4CCCCC4)c(=O)c2cc1OC)-c1cc2c(cc1C3=O)OCO2`, the GI50 is 1490 nM and the TGI was determined as 2.86 µM.

Regarding `COc1ccc2c(c1)N(CCO)C1=C(C(=O)OC1)C2c1cc(OC)c(OC)c(OC)c1` (stereo unspecified), the GI50 is 12.3 nM and the TGI worked out at 0.0405 µM.

In the case of `c1cc(N2CCCC2)c2nc(-c3[nH]ncc3Nc3ncnc4[nH]ccc34)[nH]c2c1`, the GI50 is 66.1 nM and the TGI was determined as 0.265 µM.

Turning to `CC(=O)OCC1OC(OC2=C(CC=C(C)C)C(=O)c3ccccc3C2=O)C(OC(C)=O)C(OC(C)=O)C1OC(C)=O` (stereo unspecified), the GI50 is 1580 nM and the TGI is 3.68 µM.

With `COc1cc(C2c3cc4c(cc3OC(N3CCCCC3)C2C)OCO4)cc(OC)c1OC` (stereo unspecified), the GI50 was 3660 nM and the TGI stood at 30.3 µM.

Turning to `CC1(C)CCC(S(=O)(=O)c2ccc3c(c2)/C(=N\O)c2cc(S(=O)(=O)N4CCN(c5ccc(F)cc5O)CC4)ccc2-3)CC1`, the GI50 was 37.1 nM and the TGI was 0.134 µM.

Consider `CC(C)(C)c1[nH]nc2c1C(c1cc3ccccc3[nH]c1=O)Nc1cc(C(=O)Nc3ccc(Cl)cc3)ccc1N2` (stereo unspecified), for which the GI50 is 1360 nM and the TGI turned out to be 3.08 µM.

For the compound `Nc1ccc2c(c1)Cc1cc(Cl)c(Cl)cc1-2`, the GI50 is 1360 nM and the TGI stood at 86.4 µM.

For `COc1cccc2c1C(=O)c1c(O)c3c(c(O)c1C2=O)C[C@@](O)(C(=O)CO)C[C@@H]3OC1CC(N)C(O)C(C)O1` (stereo partly specified), the GI50 is 59.9 nM and 58.9 nM and 97.1 nM; the TGI was 0.25 µM and 0.236 µM and 0.486 µM.

For the compound `COc1ccc2c(CCC(c3ccccc3)c3ccccc3)c3[n+](cc2c1OC)CCc1cc2c(cc1-3)OCO2`, the TGI was determined as 0.228 µM.

With `CCOC(=O)c1ccc2c(c1)c1c(C)c3ccncc3c(C)c1n2C`, the GI50 was 1160 nM and the TGI came to 2.83 µM.

`COc1cc(C(=O)/C=C/c2c(-c3cccs3)nc3sc(C)cn23)cc(OC)c1OC`: the GI50 is 2230 nM and the TGI is 8.45 µM.

In the case of `C=C(C)[C@@H]1CC[C@]2(CNCCO)CC[C@]3(C)[C@H](CC[C@@H]4[C@@]5(C)CCC(N)[C@@](C)(CO)[C@@H]5CC[C@]43C)[C@@H]12` (stereo partly specified), the GI50 was 1610 nM and the TGI came out at 3.18 µM.

`Nc1nc2c(c3cnccc13)C(c1cccc(Br)c1)Cc1cnccc1-2` (stereo unspecified): the GI50 was 257 nM and the TGI worked out at 0.808 µM.

As to `COc1c(OCCCN2CCOCC2)ccc2c3n(c(=NC(=O)c4cnc(N)nc4)nc12)CCN3`, the GI50 is 21.2 nM and 27.9 nM and 38.9 nM; the TGI was 229 nM [middle of 4 runs].

For `NC(=O)c1cccc(-n2ccc3cc(NC(=O)Nc4ccc(N5CCOCC5)c(C(F)(F)F)c4)ccc32)n1`, the GI50 was 2440 nM and the TGI worked out at 7.53 µM.

As for `COc1ccc(C2=C(c3cn(C)c4ccccc34)C(=O)NC2=O)cc1`, the GI50 was 9840 nM and the TGI was more than 25 µM.

On to `CCN1CCN(c2cc(C)nc(N(CCCNc3ccnc4cc(Cl)ccc34)Cc3cccs3)n2)CC1`, for which the GI50 is 1980 nM and the TGI worked out at 5.09 µM.

In the case of `COC(=O)c1c2c(c[n+]([O-])c1C)C(=O)C=C(NCc1ccccc1)C2=O`, the GI50 was 138 nM and the TGI stood at 0.371 µM.

As to `Cc1c(NC(=O)c2cc(C(N)=O)nc3cc(F)ccc23)c(C(F)(F)F)nn1Cc1ccc(C#N)cc1`, the GI50 was 6580 nM and the TGI is more than 71.9 µM.

Consider `CCOC(=O)c1cc(C(=O)c2ccc(Cl)cc2)n2ccc(-c3cc[n+](CC(=O)c4ccc(OC)cc4)cc3)cc12`, for which the GI50 is 1840 nM and the TGI came to 3.75 µM.

Regarding `Cc1ncn(-c2ccc(/C=N/Nc3ccnc4cc(Cl)ccc34)cc2)c1C`, the GI50 was 1480 nM and the TGI worked out at 3 µM.

On to `CCOC(=O)c1c(NCC(=O)Nc2cccc([N+](=O)[O-])c2)sc(C(C)=O)c1C`, for which the GI50 is 1850 nM and the TGI is 4.53 µM.

On to `CCCCCCCCCCCCC[N+](C)(C)Cc1ccccc1`, for which the GI50 is 213 nM and the TGI came to 0.852 µM.

As for `CC[C@]12C=CCN3CC[C@]4(C(=C(C(=O)OC)C1)Nc1cc(OC)c(OC(C)=O)cc14)[C@@H]32`, the GI50 was 428 nM and the TGI is 20.2 µM.

As to `COc1cc(Nc2cc(C)nc(N3CCN(c4ccnc5cc(Cl)ccc45)CC3)n2)cc(OC)c1`, the GI50 is 129 nM and the TGI is 3.2 µM.

In the case of `Cc1cc(C)c(CNC(=O)c2cc(-c3ccc(CN4CCOCC4)cc3)cc3c2cnn3C2CCCC2)c(=O)[nH]1`, the GI50 is 13900 nM and the TGI was found to be 36.2 µM.

`Cn1cc(C2=C(Sc3ccccc3)C(=O)NC2=O)c2ccccc21`: the GI50 was 4940 nM and the TGI turned out to be 10.4 µM.

Turning to `Cc1cccc(NC(=O)c2sc3nc4c(cc3c2N)CCCC4)c1`, the GI50 is 1750 nM and the TGI turned out to be 44.1 µM.

Consider `O=C1NC(=NCCc2cccs2)S/C1=C\c1ccc2ncccc2c1`, for which the GI50 was 5530 nM and the TGI was more than 25 µM.

In the case of `CC(C)=CC(=O)OCC(=O)O[C@@H]1C[C@]2(C(C)C)O[C@@]1(C)[C@@H]1CC[C@@H](C)[C@H]1[C@@H]2OC(=O)/C=C/c1ccccc1`, the GI50 was 11400 nM and the TGI was more than 82.7 µM.

Take `CN(C)c1ccc2nc3ccc(=N)cc-3sc2c1`: the GI50 was 3520 nM and the TGI is 13.8 µM.

Regarding `O=C(N/N=C/c1ccc(Cl)s1)c1[nH]c2ccc(Br)cc2c1-c1ccccc1`, the GI50 was 286 nM and the TGI came out at 4.2 µM.
